Common to all, as to assay: relative viability (nuclei count vs DMSO), 5 days (fraction); higher = more cells survive
Compound in the test “Fedratinib + Tozasertib”: Cc1cnc(Nc2ccc(OCCN3CCCC3)cc2)nc1Nc1cccc(S(=O)(=O)NC(C)(C)C)c1 [Fedratinib] + Cc1cc(Nc2cc(N3CCN(C)CC3)nc(Sc3ccc(NC(=O)C4CC4)cc3)n2)n[nH]1 [Tozasertib] (partner 0.1 µM)
The method in brief:
(§1)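 Cells from lung cancer lines were seeded into 1536-well plates and, one day later, dosed by pin tool. Treatments were either a single drug or a fixed dose of an anchor drug with five library-drug doses (not always all listed) in √10 steps. After 5 days, nuclei were stained in a one-step fixation (final 0.05% Triton X-100, 1% formaldehyde, 1 ug/ml Hoechst) and counted on 4× images, and relative viability is the treated-to-vehicle nuclei ratio, as the median of duplicate plates.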

Compound in the test “GW-2580 + Phenformin”: COC1=CC=C(C=C1)COC2=C(C=C(C=C2)CC3=CN=C(N=C3N)N)OC [GW-2580] + N=C(N)NC(=N)NCCc1ccccc1 [Phenformin] (partner 250 µM)
The method in brief:
as §1

Compound in the test “GW-2580 + Linsitinib”: COC1=CC=C(C=C1)COC2=C(C=C(C=C2)CC3=CN=C(N=C3N)N)OC [GW-2580] + C[C@]1(O)C[C@@H](c2nc(-c3ccc4ccc(-c5ccccc5)nc4c3)c3c(N)nccn32)C1 [Linsitinib] (partner 1 µM)
The essentials:
as §1

Compound in the test “GW-2580 + Lapatinib”: COC1=CC=C(C=C1)COC2=C(C=C(C=C2)CC3=CN=C(N=C3N)N)OC [GW-2580] + CS(=O)(=O)CCNCc1ccc(-c2ccc3ncnc(Nc4ccc(OCc5cccc(F)c5)c(Cl)c4)c3c2)o1 [Lapatinib] (partner 2 µM)
The essentials: as §1

Compound in the test “Fedratinib + Foretinib”: Cc1cnc(Nc2ccc(OCCN3CCCC3)cc2)nc1Nc1cccc(S(=O)(=O)NC(C)(C)C)c1 [Fedratinib] + COc1cc2c(Oc3ccc(NC(=O)C4(C(=O)Nc5ccc(F)cc5)CC4)cc3F)ccnc2cc1OCCCN1CCOCC1 [Foretinib] (partner 0.25 µM)
The essentials:
as §1

The record followed here is the supplement of paper PMC10307832.

As for UMC-11, the relative viability with Fedratinib + Tozasertib (first compound 0.1 µM) stood at 0.229; with Fedratinib + Tozasertib (first compound 0.3162 µM), 0.228; with Fedratinib + Tozasertib (first compound 1 µM), 0.193; with GW-2580 + Phenformin (first compound 0.08 µM), 0.349; with GW-2580 + Phenformin (first compound 0.8 µM) it was 0.311; in the test with GW-2580 + Phenformin (first compound 2.53 µM), 0.388. Also, the relative viability with GW-2580 + Phenformin (first compound 8 µM) was determined as 0.343; with GW-2580 + Linsitinib (first compound 0.08 µM), 1.02; in the test with GW-2580 + Linsitinib (first compound 0.8 µM), 1.15; in the test with GW-2580 + Linsitinib (first compound 2.53 µM), 0.998; with GW-2580 + Linsitinib (first compound 8 µM) it was 1.02; with GW-2580 + Lapatinib (first compound 0.08 µM) it was 1.26. In addition, the relative viability with GW-2580 + Lapatinib (first compound 0.8 µM) came out at 1.11; in the test with GW-2580 + Lapatinib (first compound 2.53 µM) it was 0.88; with GW-2580 + Lapatinib (first compound 8 µM), 1.15; with Fedratinib + Foretinib (first compound 0.1 µM) it was 1.1; with Fedratinib + Foretinib (first compound 0.3162 µM), 0.958; with Fedratinib + Foretinib (first compound 1 µM) it was 0.706.
